Data taken from the supplement of paper PMC10307832.

Experiments:
Test in all cases: relative viability (nuclei count vs DMSO), 5 days (fraction); higher = more cells survive
[1] = compound: CN1CCN(CC1)C2=CC(=C(C=C2)NC3=NC=C4C(=N3)N(C5=CC=CC=C5C(=O)N4C)C)OC [XMD8-85] + CS(=O)(=O)CCNCc1ccc(-c2ccc3ncnc(Nc4ccc(OCc5cccc(F)c5)c(Cl)c4)c3c2)o1 [Lapatinib] (partner 2 µM)
Procedure, shortened: (§1)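 Relative viability is defined as nuclei in treated wells over nuclei in vehicle wells. Duplicate plates were run and medians reported. Lung cancer cell lines in 1536-well plates were dosed by pin tool one day after seeding, with one drug or with a fixed anchor-drug dose plus five library-drug doses (not always all listed) in √10 steps, and nuclei were counted after 5 days.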

[2] = compound: O=C(O)C(Cc1ccccc1[N+](=O)[O-])=NNc1nc(-c2ccc(Cl)c(Cl)c2)cs1 (mixture of isomers) [4EGI-1] + O=C(c1cc(Cc2n[nH]c(=O)c3ccccc23)ccc1F)N1CCN(C(=O)C2CC2)CC1 [Olaparib] (partner 8 µM)
Procedure, shortened: as §1

[3] = compound: O=C(O)C(Cc1ccccc1[N+](=O)[O-])=NNc1nc(-c2ccc(Cl)c(Cl)c2)cs1 (mixture of isomers) [4EGI-1] + C[C@@H](Oc1cc(-c2cnn(C3CCNCC3)c2)cnc1N)c1c(Cl)ccc(F)c1Cl [Crizotinib] (partner 1 µM)
Procedure, shortened: as §1

[4] = compound: CN1CCN(CC1)C2=CC(=C(C=C2)NC3=NC=C4C(=N3)N(C5=CC=CC=C5C(=O)N4C)C)OC [XMD8-85] + Cc1nc(Nc2ncc(C(=O)Nc3c(C)cccc3Cl)s2)cc(N2CCN(CCO)CC2)n1 [Dasatinib] (partner 0.075 µM)
Procedure, shortened: as §1

Row | Cell Line | relative viability ([1]; first compound 0.08 µM) | relative viability ([1]; first compound 0.253 µM) | relative viability ([1]; first compound 0.8 µM) | relative viability ([1]; first compound 2.53 µM) | relative viability ([1]; first compound 8 µM) | relative viability ([2]; first compound 0.5 µM) | relative viability ([2]; first compound 5 µM) | relative viability ([2]; first compound 15.81 µM) | relative viability ([2]; first compound 50 µM) | relative viability ([3]; first compound 0.5 µM) | relative viability ([3]; first compound 1.581 µM) | relative viability ([3]; first compound 5 µM) | relative viability ([3]; first compound 15.81 µM) | relative viability ([3]; first compound 50 µM) | relative viability ([4]; first compound 0.08 µM) | relative viability ([4]; first compound 0.8 µM) | relative viability ([4]; first compound 2.53 µM) | relative viability ([4]; first compound 8 µM) | relative viability ([2]; first compound 1.581 µM) | relative viability ([4]; first compound 0.253 µM)
1 | ABC-1 | 1.32 | 1.18 | 0.942 | 1.21 | 1.11 | 0.885 | 1.19 | 1.16 | 0.269 | 1.23 | 0.7 | 1.09 | 0.472 | 0.259 | 0.515 | 0.503 | 0.673 | 0.408 | – | –
2 | NCI-H647 | 1.08 | 1.09 | 1.24 | 1.48 | 0.638 | 0.515 | 0.469 | 0.129 | 0.0662 | 1.05 | 1.05 | 1.16 | 0.656 | 0.155 | 0.197 | 0.16 | 0.196 | 0.122 | 0.42 | 0.141
3 | NCI-H727 | 0.627 | 0.792 | – | 0.731 | 0.543 | 0.638 | 0.717 | 0.496 | 0.592 | 1.7 | 0.926 | 0.716 | 0.588 | 0.343 | 0.295 | 0.442 | 0.344 | 0.353 | 0.679 | 0.416
4 | COR-L23 | 0.896 | 1.09 | 1.11 | 1.08 | 0.913 | 0.35 | 0.344 | 0.271 | 0.175 | 0.687 | 0.412 | 0.64 | 0.521 | 0.141 | 0.516 | 0.555 | 0.63 | 0.347 | 0.217 | 0.502
5 | NCI-H1915 | 0.954 | 1.01 | 1.09 | 0.986 | 0.921 | 0.261 | 0.275 | 0.207 | 0.152 | 0.924 | 0.62 | 0.847 | 0.907 | 0.477 | 0.328 | 0.348 | 0.326 | 0.32 | 0.207 | 0.339
6 | NCI-H2126 | 0.705 | 0.714 | 0.757 | 0.837 | 0.646 | 1 | 0.858 | 0.942 | 0.654 | 1.03 | 1.05 | 1.03 | 1.03 | 0.777 | 0.601 | 0.613 | 0.562 | 0.417 | 0.927 | 0.625
7 | NCI-H2087 | 1.01 | 1.08 | 1.05 | 1.12 | 0.974 | 0.633 | 0.542 | 0.278 | 0.162 | 0.896 | 0.754 | 0.811 | 0.643 | 0.478 | 0.953 | 0.959 | 0.79 | 0.472 | 0.562 | 0.802
8 | LC-2-ad | 1.03 | 0.976 | 0.984 | 1 | 0.702 | 0.631 | 0.645 | 0.523 | 0.309 | 0.433 | – | 0.451 | 0.343 | 0.411 | 0.415 | 0.482 | 0.345 | 0.237 | 0.617 | 0.319
